Test results reported in PubChem BioAssay AID1963962 (Molecular Pharmacology Branch, DTP, NCI, 2024).

Tested on: 967376-340-R-J2-PDC multicell spheroid viability
Assay: Anticancer human tumor 967376-340-R-J2-PDC patient-derived colon adenocarcinoma cell line growth inhibition [PI3K]
Settings: for IC50: curve of first compound; for viability, T/C: stronger effect = lower value; active = viability on the fitted dose curve at most 10% of control; inactive = the rest
Outline: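 Agents were dosed from a top concentration near clinical Cmax (otherwise 10 microM) in half-log decrements, alone or combined with PI3K inhibitors. The spheroids contain tumor cells plus endothelial (HUVEC) and MSC stroma; viability is measured.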

[1] = second compound 0.0316 µM, first compound 0.0316 µM
[2] = second compound 0.0316 µM, first compound 0.1 µM
[3] = second compound 0.0316 µM, first compound 0.316 µM
[4] = second compound 0.0316 µM, first compound 1 µM
[5] = second compound 0.0316 µM, first compound 3.16 µM
[6] = second compound 0.0316 µM, first compound 10 µM
[7] = second compound 0.1 µM, first compound 0.0316 µM
[8] = second compound 0.1 µM, first compound 0.1 µM
[9] = second compound 0.1 µM, first compound 0.316 µM
[10] = second compound 0.1 µM, first compound 1 µM
[11] = second compound 0.1 µM, first compound 3.16 µM
[12] = second compound 0.1 µM, first compound 10 µM
[13] = second compound 0.316 µM, first compound 0.0316 µM
[14] = second compound 0.316 µM, first compound 0.1 µM
[15] = second compound 0.316 µM, first compound 0.316 µM
[16] = second compound 0.316 µM, first compound 1 µM
[17] = second compound 0.316 µM, first compound 3.16 µM
[18] = second compound 0.316 µM, first compound 10 µM
[19] = second compound 1 µM, first compound 0.0316 µM
[20] = second compound 1 µM, first compound 0.1 µM
[21] = second compound 1 µM, first compound 0.316 µM
[22] = second compound 1 µM, first compound 1 µM
[23] = second compound 1 µM, first compound 3.16 µM
[24] = second compound 1 µM, first compound 10 µM
[25] = second compound 3.16 µM, first compound 0.0316 µM
[26] = second compound 3.16 µM, first compound 0.1 µM
[27] = second compound 3.16 µM, first compound 0.316 µM
[28] = second compound 3.16 µM, first compound 1 µM
[29] = second compound 3.16 µM, first compound 3.16 µM
[30] = second compound 3.16 µM, first compound 10 µM
[31] = second compound 10 µM, first compound 0.0316 µM
[32] = second compound 10 µM, first compound 0.1 µM
[33] = second compound 10 µM, first compound 0.316 µM
[34] = second compound 10 µM, first compound 1 µM
[35] = second compound 10 µM, first compound 3.16 µM
[36] = second compound 10 µM, first compound 10 µM
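Note: spheroids exposed to agents for 7 days before read-out.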
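Throughout, for viability, T/C: luminescence used as surrogate of cell viability.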

C=CC(=O)N1CCN(c2nc(=O)n(-c3c(C)ccnc3C(C)C)c3nc(-c4c(O)cccc4F)c(F)cc23)C(C)C1 (stereo not given) + Cc1nc(NC(=O)N2CCCC2C(N)=O)sc1-c1ccnc(C(C)(C)C(F)(F)F)c1
> 10 µM: IC50 (second compound 0.0316 µM) | IC50 (second compound 0.1 µM) | IC50 (second compound 0.316 µM) | IC50 (second compound 1 µM) | IC50 (second compound 3.16 µM)
inactive: viability, T/C [1] 85.5% | viability, T/C [2] 85.2% | viability, T/C [3] 86.6% | viability, T/C [4] 84.6% | viability, T/C [5] 91.7% | viability, T/C [6] 102% | viability, T/C [7] 91.9% | viability, T/C [8] 85.8% | viability, T/C [9] 75.6% | viability, T/C [10] 84.6% | viability, T/C [11] 100% | viability, T/C [12] 74% | viability, T/C [13] 73.3% | viability, T/C [14] 74.5% | viability, T/C [15] 62.5% | viability, T/C [16] 94% | viability, T/C [17] 91.3% | viability, T/C [18] 69.8% | viability, T/C [19] 65.5% | viability, T/C [20] 65.7% | viability, T/C [21] 57.3% | viability, T/C [22] 66.6% | viability, T/C [23] 66.1% | viability, T/C [24] 76.5% | viability, T/C [25] 61% | viability, T/C [26] 52.9% | viability, T/C [27] 64.4% | viability, T/C [28] 56.8% | viability, T/C [29] 77.7% | viability, T/C [30] 53.3% | viability, T/C [31] 46.9% | viability, T/C [32] 44.7% | viability, T/C [33] 44.9% | viability, T/C [34] 56.3% | viability, T/C [35] 48.7% | viability, T/C [36] 42%
< 0.0316 µM: IC50 (second compound 10 µM)

CC(C)NCC(C(=O)N1CCN(c2ncnc3c2C(C)CC3O)CC1)c1ccc(Cl)cc1 (stereo not given) + Cc1nc(NC(=O)N2CCCC2C(N)=O)sc1-c1ccnc(C(C)(C)C(F)(F)F)c1
inactive: viability, T/C [1] 118% | viability, T/C [2] 100% | viability, T/C [3] 115% | viability, T/C [4] 80.5% | viability, T/C [5] 77.8% | viability, T/C [6] 80.8% | viability, T/C [7] 96.4% | viability, T/C [8] 82.3% | viability, T/C [9] 85.1% | viability, T/C [10] 70.3% | viability, T/C [11] 68.4% | viability, T/C [12] 87% | viability, T/C [13] 88.6% | viability, T/C [14] 78.6% | viability, T/C [15] 65.5% | viability, T/C [16] 81.1% | viability, T/C [17] 84% | viability, T/C [18] 70% | viability, T/C [19] 62.3% | viability, T/C [20] 64.2% | viability, T/C [21] 73% | viability, T/C [22] 78.4% | viability, T/C [23] 72.3% | viability, T/C [24] 63.5% | viability, T/C [25] 67.1% | viability, T/C [26] 68% | viability, T/C [27] 56.8% | viability, T/C [28] 50.7% | viability, T/C [29] 62.4% | viability, T/C [30] 57.4% | viability, T/C [31] 56% | viability, T/C [32] 54.8% | viability, T/C [33] 52.4% | viability, T/C [34] 49.1% | viability, T/C [35] 55.6% | viability, T/C [36] 50.5%
> 10 µM: IC50 (second compound 0.0316 µM) | IC50 (second compound 0.1 µM) | IC50 (second compound 0.316 µM) | IC50 (second compound 1 µM) | IC50 (second compound 3.16 µM) | IC50 (second compound 10 µM)

CCN1CCN(Cc2ccc(Nc3ncc(F)c(-c4cc(F)c5nc(C)n(C(C)C)c5c4)n3)nc2)CC1 + Cc1nc(NC(=O)N2CCCC2C(N)=O)sc1-c1ccnc(C(C)(C)C(F)(F)F)c1
< 0.00316 µM: IC50 (second compound 10 µM)
0.162 µM: IC50 (second compound 1 µM)
0.0774 µM: IC50 (second compound 3.16 µM)
> 1 µM: IC50 (second compound 0.0316 µM) | IC50 (second compound 0.1 µM) | IC50 (second compound 0.316 µM)
inactive: viability, T/C (second compound 0.0316 µM, first compound 0.00316 µM) 107% | viability, T/C (second compound 0.0316 µM, first compound 0.01 µM) 64.6% | viability, T/C [1] 90.9% | viability, T/C [2] 77% | viability, T/C [3] 77.8% | viability, T/C [4] 64.7% | viability, T/C (second compound 0.1 µM, first compound 0.00316 µM) 109% | viability, T/C (second compound 0.1 µM, first compound 0.01 µM) 72.5% | viability, T/C [7] 90.5% | viability, T/C [8] 67.4% | viability, T/C [9] 54.3% | viability, T/C [10] 58.9% | viability, T/C (second compound 0.316 µM, first compound 0.00316 µM) 75.8% | viability, T/C (second compound 0.316 µM, first compound 0.01 µM) 82.1% | viability, T/C [13] 64.2% | viability, T/C [14] 58.4% | viability, T/C [15] 60.8% | viability, T/C [16] 57.4% | viability, T/C (second compound 1 µM, first compound 0.00316 µM) 56% | viability, T/C (second compound 1 µM, first compound 0.01 µM) 72% | viability, T/C [19] 58.4% | viability, T/C [20] 46.1% | viability, T/C [21] 49.4% | viability, T/C [22] 32.8% | viability, T/C (second compound 3.16 µM, first compound 0.00316 µM) 62.3% | viability, T/C (second compound 3.16 µM, first compound 0.01 µM) 78.5% | viability, T/C [25] 59% | viability, T/C [26] 49% | viability, T/C [27] 44.1% | viability, T/C [28] 41.5% | viability, T/C (second compound 10 µM, first compound 0.00316 µM) 47.1% | viability, T/C (second compound 10 µM, first compound 0.01 µM) 49% | viability, T/C [31] 45.4% | viability, T/C [32] 37% | viability, T/C [33] 40.3% | viability, T/C [34] 27.1%

Cn1ncc(Cl)c1-c1cc(C(=O)NC(CN)Cc2cccc(F)c2)sc1Cl (stereo not given) + Cc1nc(NC(=O)N2CCCC2C(N)=O)sc1-c1ccnc(C(C)(C)C(F)(F)F)c1
> 10 µM: IC50 (second compound 0.0316 µM) | IC50 (second compound 0.316 µM)
inactive: viability, T/C [1] 108% | viability, T/C [2] 79% | viability, T/C [3] 77.8% | viability, T/C [4] 72.3% | viability, T/C [5] 61.3% | viability, T/C [6] 71.4% | viability, T/C [7] 75.6% | viability, T/C [8] 91% | viability, T/C [9] 76.5% | viability, T/C [10] 82.6% | viability, T/C [11] 75.2% | viability, T/C [12] 41.1% | viability, T/C [13] 72.8% | viability, T/C [14] 82% | viability, T/C [15] 78.1% | viability, T/C [16] 89.6% | viability, T/C [17] 61.6% | viability, T/C [18] 59.9% | viability, T/C [19] 62.2% | viability, T/C [20] 83.4% | viability, T/C [21] 60.5% | viability, T/C [22] 65% | viability, T/C [23] 55.3% | viability, T/C [24] 38.9% | viability, T/C [25] 52.2% | viability, T/C [26] 55.9% | viability, T/C [27] 53.2% | viability, T/C [28] 61.3% | viability, T/C [29] 52% | viability, T/C [30] 42.4% | viability, T/C [31] 60.4% | viability, T/C [32] 55.6% | viability, T/C [33] 51.2% | viability, T/C [34] 40.8% | viability, T/C [35] 46.7% | viability, T/C [36] 32.8%
5.42 µM: IC50 (second compound 3.16 µM)
7.44 µM: IC50 (second compound 0.1 µM)
4.6 µM: IC50 (second compound 1 µM)
0.366 µM: IC50 (second compound 10 µM)

Cn1nccc1Nc1nccc(-c2ccn(C(CO)c3ccc(Cl)c(F)c3)c(=O)c2)n1 (stereo not given) + Cc1nc(NC(=O)N2CCCC2C(N)=O)sc1-c1ccnc(C(C)(C)C(F)(F)F)c1
> 10 µM: IC50 (second compound 0.0316 µM) | IC50 (second compound 0.1 µM) | IC50 (second compound 0.316 µM) | IC50 (second compound 1 µM) | IC50 (second compound 3.16 µM)
< 0.0316 µM: IC50 (second compound 10 µM)
inactive: viability, T/C [1] 66.3% | viability, T/C [2] 104% | viability, T/C [3] 97.2% | viability, T/C [4] 83.5% | viability, T/C [5] 87.3% | viability, T/C [6] 85.7% | viability, T/C [7] 70.2% | viability, T/C [8] 67% | viability, T/C [9] 85.1% | viability, T/C [10] 76.7% | viability, T/C [11] 72.4% | viability, T/C [12] 75.5% | viability, T/C [13] 65.4% | viability, T/C [14] 70.9% | viability, T/C [15] 63.8% | viability, T/C [16] 82% | viability, T/C [17] 84.2% | viability, T/C [18] 60.7% | viability, T/C [19] 66.6% | viability, T/C [20] 61% | viability, T/C [21] 60.1% | viability, T/C [22] 67.8% | viability, T/C [23] 64.7% | viability, T/C [24] 53.5% | viability, T/C [25] 46.1% | viability, T/C [26] 61.4% | viability, T/C [27] 56.3% | viability, T/C [28] 58.5% | viability, T/C [29] 60.8% | viability, T/C [30] 77.1% | viability, T/C [31] 39.9% | viability, T/C [32] 47.6% | viability, T/C [33] 42.2% | viability, T/C [34] 36.1% | viability, T/C [35] 53.7% | viability, T/C [36] 32.3%
